In the supplement of paper PMC4862054:

Tests used:
Conditions in all cases: incubation time: 72 h
MDA-MB-436 [1] = experiment: normalised viability (% of control), CellTiter-Blue; higher = more viable cells (about 100 = DMSO control)
How it was run: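 After 72 h on compound-loaded 384-well plates, breast cancer cell lines received 2.5 µl CellTiter-Blue reagent for 2 h at 37 °C. Fluorescence at 560/590 nm was scaled per plate so that vehicle was 100 and a positive kill control was 0. The value stands for normalised viability at a single listed concentration of the series.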

CAL-148 [2] = experiment: normalised viability (% of control), CellTiter-Blue; higher = more viable cells (about 100 = DMSO control)
Protocol: (§1)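 DSRT, CellTiter-Blue viability, 72 h incubation. Signal is normalised to DMSO and benzethonium chloride controls. Value is the normalised response at dose 6.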

CAL-51 [3] = experiment: as above
Protocol: as §1

CAL-85-1 [4] = experiment: as above
Protocol: as §1

DU-4475 [5] = experiment: as above
Protocol: as §1

HDQ-P1 [6] = experiment: as above
Protocol: as §1

MDA-MB-453 [7] = experiment: as above
Protocol: as §1

BT-474 = experiment: drug sensitivity score (DSS), CellTiter-Glo (DSS (AUC-based score)); higher = stronger drug effect (viability inhibition or cytotoxicity); extreme values may be limits of the assay
How it was run: (§2)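 Breast cancer cell lines, seeded as 20 µl suspension, were incubated 72 h with compound in 384-well plates at 5 concentrations in 10-fold steps over a 10,000-fold range set for each compound. Fluorescence from CellTox Green was read at 485/520 nm before CellTiter-Glo luminescence, which was read after 10 min at room temperature. Every plate was normalised to 0.1 % DMSO and a positive kill control, and the drug sensitivity score was taken from the area under the fitted dose-response curve.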

BT-549 = experiment: as above
How it was run: as §2

CAL-120 = experiment: as above
How it was run: as §2

CAL-148 [8] = experiment: as above
How it was run: as §2

CAL-51 [9] = experiment: as above
How it was run: as §2

CAL-85-1 [10] = experiment: as above
How it was run: as §2

DU-4475 [11] = experiment: as above
How it was run: as §2

HCC1143 = experiment: as above
How it was run: as §2

HCC1599 = experiment: as above
How it was run: as §2

HCC1937 = experiment: as above
How it was run: as §2

HDQ-P1 [12] = experiment: as above
How it was run: as §2

Hs578T = experiment: as above
How it was run: as §2

MCF-10A = experiment: as above
How it was run: as §2

MDA-MB-231 = experiment: as above
How it was run: as §2

MDA-MB-436 [13] = experiment: as above
How it was run: as §2

MDA-MB-453 [14] = experiment: as above
How it was run: as §2

MDA-MB-468 = experiment: as above
How it was run: as §2

MFM-223 = experiment: as above
How it was run: as §2

SK-BR-3 = experiment: as above
How it was run: as §2

Row | SMILES | normalised viability (MDA-MB-436 [1]; 1000 nM) [%] | normalised viability (CAL-148 [2]; 300 nM) [%] | normalised viability (CAL-51 [3]; 300 nM) [%] | normalised viability (CAL-85-1 [4]; 300 nM) [%] | normalised viability (DU-4475 [5]; 300 nM) [%] | normalised viability (HDQ-P1 [6]; 300 nM) [%] | normalised viability (MDA-MB-453 [7]; 300 nM) [%] | drug sensitivity score (BT-474) | drug sensitivity score (BT-549) | drug sensitivity score (CAL-120) | drug sensitivity score (CAL-148 [8]) | drug sensitivity score (CAL-51 [9]) | drug sensitivity score (CAL-85-1 [10]) | drug sensitivity score (DU-4475 [11]) | drug sensitivity score (HCC1143) | drug sensitivity score (HCC1599) | drug sensitivity score (HCC1937) | drug sensitivity score (HDQ-P1 [12]) | drug sensitivity score (Hs578T) | drug sensitivity score (MCF-10A) | drug sensitivity score (MDA-MB-231) | drug sensitivity score (MDA-MB-436 [13]) | drug sensitivity score (MDA-MB-453 [14]) | drug sensitivity score (MDA-MB-468) | drug sensitivity score (MFM-223) | drug sensitivity score (SK-BR-3) | normalised viability (MDA-MB-436 [1]; 100 nM) [%] | normalised viability (CAL-148 [2]; 30 nM) [%] | normalised viability (CAL-51 [3]; 30 nM) [%] | normalised viability (CAL-85-1 [4]; 30 nM) [%] | normalised viability (DU-4475 [5]; 30 nM) [%] | normalised viability (HDQ-P1 [6]; 30 nM) [%] | normalised viability (MDA-MB-453 [7]; 30 nM) [%] | normalised viability (MDA-MB-436 [1]; 500 nM) [%] | normalised viability (CAL-148 [2]; 150 nM) [%] | normalised viability (CAL-51 [3]; 150 nM) [%] | normalised viability (CAL-85-1 [4]; 150 nM) [%] | normalised viability (DU-4475 [5]; 150 nM) [%] | normalised viability (HDQ-P1 [6]; 150 nM) [%] | normalised viability (MDA-MB-453 [7]; 150 nM) [%]
1 | CNNCc1ccc(C(=O)NC(C)C)cc1 [Procarbazine] | 88.8 | 101 | 105 | 100 | 83.2 | 97.5 | 101 | 0 | 0 | 0 | 0 | 0 | 0 | 0 | 0 | 0 | 0 | 0 | 0 | 0 | 0 | 0 | 0 | 0 | 0 | 0 |  |  |  |  |  |  |  |  |  |  |  |  |  | 
2 | C/C(=C\c1csc(C)n1)[C@@H]1C[C@@H]2O[C@]2(C)CCC[C@H](C)[C@H](O)[C@@H](C)C(=O)C(C)(C)[C@@H](O)CC(=O)O1 [Patupilone] |  |  |  |  |  |  |  | 5.69 | 20.5 | 5.48 | 10.2 | 19.1 | 16.3 | 6.14 | 13.5 | 2.26 | 0.309 | 4.83 | 12.7 | 8.33 | 6.83 | 15 | 5.87 | 18.2 | 3.26 | 15.1 | 39.5 | 19.6 | 28.8 | 27.2 | 18.5 | 48.4 | 24.8 |  |  |  |  |  |  | 
3 | CC(C)(C#N)c1cc(Cn2cncn2)cc(C(C)(C)C#N)c1 [Anastrozole] | 83.6 | 96.1 | 102 | 93.2 | 83.5 | 78 | 84.1 | 0 | 0 | 0 | 0 | 0 | 0 | 0 | 0 | 0 | 0 | 0 | 0 | 0 | 0 | 0 | 0 | 0 | 0 | 0 |  |  |  |  |  |  |  |  |  |  |  |  |  | 
4 | O=C1NC(=O)[C@@H](c2cn3c4c(cccc24)CCC3)[C@@H]1c1c[nH]c2ccccc12 [Tivantinib] |  |  |  |  |  |  |  | 0.701 | 2.94 | 0.91 | 1.93 | 1.38 | 3.66 | 0.839 | 2.06 | 0.956 | 0 | 0 | 3.41 | 1.72 | 1.39 | 2.69 | 4.48 | 2.74 | 0 | 4.51 | 56.6 | 104 | 104 | 95.8 | 87.3 | 55.3 | 107 |  |  |  |  |  |  | 
5 | CN(C)CCN1C(=O)c2cccc3cc(N)cc(c23)C1=O [Amonafide] | 95.7 | 89.8 | 109 | 91.7 | 92.3 | 67.5 | 92.5 | 5.06 | 2.93 | 3.03 | 4.44 | 2.87 | 2.16 | 5.38 | 1.61 | 0.856 | 2.35 | 0 | 2.97 | 2.36 | 3.06 | 2.32 | 0 | 2.59 | 0.47 | 3.61 |  |  |  |  |  |  |  |  |  |  |  |  |  | 
6 | Cn1cncc1[C@@](N)(c1ccc(Cl)cc1)c1ccc2c(c1)c(-c1cccc(Cl)c1)cc(=O)n2C [Tipifarnib] | 82.9 | 44.9 | 60.2 | 64 | 43.9 | 52.5 | 77.2 | 4.08 | 5.49 | 3.76 | 7.28 | 11.4 | 1.05 | 8.37 | 0 | 1.29 | 6.28 | 7.3 | 4.5 | 2.13 | 0 | 10.2 | 10.3 | 7.6 | 6.28 | 11.9 |  |  |  |  |  |  |  |  |  |  |  |  |  | 
7 | C[C@]12CC[C@H](O)CC1=CC[C@@H]1[C@@H]2CC[C@]2(C)C(c3cccnc3)=CC[C@@H]12 [Abiraterone] |  |  |  |  |  |  |  | 0 | 0 | 0 | 0 | 3.91 | 0 | 0 | 0 | 0 | 0 | 0 | 0 | 0 | 0 | 0 | 0 | 0 | 0 | 0 |  |  |  |  |  |  |  | 104 | 93.8 | 102 | 93.9 | 92.2 | 79.2 | 105
8 | CCCCCCCCc1ccc(CCC(N)(CO)CO)cc1 [Fingolimod] | 81.4 | 93.7 | 113 | 93.1 | 99.3 | 87.4 | 107 | 6.1 | 3.92 | 0 | 1.1 | 4.51 | 5.32 | 0 | 0 | 0.954 | 4.54 | 2.05 | 0 | 5.32 | 6.21 | 3.56 | 5.2 | 5.78 | 1.45 | 5.36 |  |  |  |  |  |  |  |  |  |  |  |  |  | 
9 | O=C(O)CCCc1ccc(N(CCCl)CCCl)cc1 [Chlorambucil] | 91.8 | 110 | 104 | 105 | 90.9 | 85.8 | 103 | 0 | 0 | 0 | 0 | 0 | 0 | 0 | 0 | 0 | 0 | 0 | 0 | 0 | 0 | 0 | 0 | 0 | 0 | 0 |  |  |  |  |  |  |  |  |  |  |  |  |  | 
